From patent US20080254487A1, “Connective Tissue Growth Factor Signaling” (FIBROGEN, INC., priority 2004, published 2008)

Assays:
CTGF and betaglycan = target: T1, CTGF and betaglycan (Homo sapiens, UniProt P29279); assay: Co-immunoprecipitation assay, binding between CTGF and betaglycan; conditions: soluble betaglycan, bFGF and CTGF mixed; dose-sensitive; FIG. 9
T1 sequence (P29279 27-349): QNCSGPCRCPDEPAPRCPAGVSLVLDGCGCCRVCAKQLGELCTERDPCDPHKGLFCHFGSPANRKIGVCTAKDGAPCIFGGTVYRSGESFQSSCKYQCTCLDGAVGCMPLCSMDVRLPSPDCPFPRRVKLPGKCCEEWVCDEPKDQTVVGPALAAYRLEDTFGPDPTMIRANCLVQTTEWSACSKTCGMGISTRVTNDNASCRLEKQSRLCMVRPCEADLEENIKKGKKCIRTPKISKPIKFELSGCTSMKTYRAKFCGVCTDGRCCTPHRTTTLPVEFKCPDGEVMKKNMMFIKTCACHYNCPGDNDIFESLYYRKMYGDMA
Protocol: (§1) Co-immunoprecipitation is a purification procedure used to determine if two different molecules, e.g., proteins, directly interact. Basically, an antibody specific to a protein of interest is added to a cell lysis under conditions suitable for antibody binding to the protein. The antibody-protein complex is then collected, e.g., using protein-G sepharose, which binds most antibodies. Any molecules that are bound to the precipitated protein will also be collected. Identification of proteins can be determined by, e.g., western blot or by direct sequencing of the purified protein(s). Several commercial kits, e.g., the PROFOUND co-immunoprecipitation kit from Pierce Biotechnology, Inc. (Rockford Ill.) are also available.
(§2) In the present examples, co-immunoprecipitations were performed as follows. The surface of intact cells was iodinated with ^125I prior to lysing cells and fractionating on a CTGF affinity column. Alternatively, CTGF and labeled cells were incubated for a period sufficient for CTGF binding to cells, and then cells were lysed and immunoprecipitations were performed using anti-CTGF specific antibodies. Antibody complexes were collected from the lysate using protein-G sepharose, and pelleted by centrifugation. Proteins eluted from affinity columns or collected by immunoprecipitation were analyzed by fractionation on SDS-PAGE and visualized by autoradiography. […]

CTGF [1] = target: T2, CTGF (Homo sapiens, UniProt P29279); assay: Co-immunoprecipitation assay, interaction with CTGF; type: binding; conditions: FIG. 8A, FIG. 9
T2 sequence (P29279 27-349): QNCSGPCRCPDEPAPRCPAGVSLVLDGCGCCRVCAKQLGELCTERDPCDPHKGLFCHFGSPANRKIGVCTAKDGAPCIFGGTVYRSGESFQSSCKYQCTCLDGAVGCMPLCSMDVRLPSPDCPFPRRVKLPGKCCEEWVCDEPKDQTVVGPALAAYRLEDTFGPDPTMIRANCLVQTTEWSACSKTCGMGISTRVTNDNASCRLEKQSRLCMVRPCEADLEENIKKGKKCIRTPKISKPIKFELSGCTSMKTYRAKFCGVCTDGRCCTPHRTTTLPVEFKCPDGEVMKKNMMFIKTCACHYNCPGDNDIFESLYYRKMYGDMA
Protocol: as §1, §2

[2] = target: T3, recombinant human CTGF (rhCTGF) (Homo sapiens, UniProt P29279); assay: Cell adhesion assay (CTGF-mediated cell adhesion); type: cell-based; conditions: HFF cells; increasing concentrations added to the adhesion reaction; FIGS. 3C, 6A, 7A
T3 construct: in the presence of no CTGF, full-length CTGF, the N-terminal half of CTGF (NH2 fragment); made in house; host or cells: Hi5 insect cells infected with baculovirus (pFASTBAC1; virus generated in Sf9)
T3 sequence (P29279 27-349): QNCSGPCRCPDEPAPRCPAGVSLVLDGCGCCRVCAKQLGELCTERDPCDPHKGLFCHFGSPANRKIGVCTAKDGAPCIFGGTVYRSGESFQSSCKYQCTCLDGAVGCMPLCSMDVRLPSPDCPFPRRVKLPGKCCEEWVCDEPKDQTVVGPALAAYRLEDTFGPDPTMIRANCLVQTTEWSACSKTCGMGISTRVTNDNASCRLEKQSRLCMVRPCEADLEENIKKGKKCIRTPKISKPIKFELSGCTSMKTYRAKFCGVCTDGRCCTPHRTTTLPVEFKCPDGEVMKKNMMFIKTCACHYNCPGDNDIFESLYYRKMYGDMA
Protocol: Methods for measuring cell adhesion mediated by CTGF are generally known to those skilled in the art. (See, e.g., Babic et al. (1999) Mol Cell Biol 19:2958-296; Ball et al. (2003) J Endocrinol 176:R1-7.) In some experiments, wells of a MAXISORP plate (Nunc Nalgene) were treated with 10 μg/ml recombinant human CTGF (rhCTGF) to directly adsorb CTGF to the well. Alternatively, wells were coated with a human monoclonal antibody specific for human CTGF, and then were blocked with bovine serum albumin to prevent non-specific binding. 2 μg/1 ml rhCTGF or fragments thereof, or a vehicle control was added to each well. Plates were then washed 3 times with PBS, cells were added at a seed density of approximately 8×10^3 cells/well, and plates were incubated for 45 minutes at 37° C. Wells were then washed twice, and the number of cells retained in each well was measured using a CYQUANT cell proliferation assay kit (Molecular Probes, Inc., Eugene Oreg.). Alternatively, attached cells were lysed in 2% Triton and lactate dehydrogenase (LDH) activity was measured using a cytotoxicity detection (LDH) kit (Roche Diagnostics Corp., Chicago, Ill.). LDH levels were compared against a standard curve generated using known numbers of cells, and results of experiment were expressed as numbers of attached cells per well.
CTGF has been described as a heparin-binding growth factor. As cells may carry a variety of proteoglycan moieties on their surface, e.g., heparan sulfate, chondroitin sulfate, etc. (see FIG. 3A), the following experiment was conducted to determine the specificity of CTGF for such moieties. The cell adhesion and cell binding assays were conducted as described in Examples 3.1 and 3.2, respectively, except prior to seeding cells were treated for 1 hour at 37° C. with either vehicle, 4 units/ml heparinase I, or 2 units/ml chondroitinase ABC.
To further examine the requirement for heparan sulfate proteoglycans in CTGF-mediated cell adhesion, adhesion was measured in the presence of increasing amounts of heparin. […]

CTGF [3] = target: T2, CTGF; assay: CTGF displacement assay (endogenous CTGF displaced from cells, sandwich ELISA); type: cell-based; parameters: measured displacement of CTGF endogenously produced by cells; endogenous in cells; host or cells: HLF and MG63 cells (constitutive or TGF-β2-induced expression); conditions: HLF or MG63 cells; titrated amounts of sulfated polysaccharides; FIGS. 6B, 7B
Protocol: Alternatively, cell binding was measured using a CTGF displacement assay. The displacement assay used in the present examples measured displacement of CTGF endogenously produced by cells. HLF and MG63 cells were separately used in the displacement assay as follows. In all experiments, cells were plated in 96-well tissue culture plates at a seed density of 2.5×10^4 cells/well. Cells were incubated for approximately 24 hours at 37° C., and then medium was replaced with a serum-free medium containing titrated amounts of sulfated polysaccharides (glycosaminoglycans, GAGs). In some experiments, constitutive CTGF expression accounted for the displaced CTGF, whereas in other experiments additional levels of CTGF were induced by addition of TGF-β2 in culture media 30 minutes prior to change of media and addition of GAGs. MG63 cells were incubated for either 3 or 6 hrs, and HLF cells were incubated for 20 hrs, at 37° C., and then conditioned media was assayed for N-fragment and full-length CTGF using a sandwich ELISA assay. (See International Publication No. WO 03/024308.)
To determine size requirements for modulation of CTGF-mediated cell adhesion and cell binding, heparin moieties containing differing saccharide subunit number were examined. Polysaccharide lengths tested ranged from 10 to approximately 50 saccharides, and experiments were carried out as described in examples 3.1 and 3.3. […]

CTGF [4] = target: T2, CTGF; assay: CTGF binding assay (binding of CTGF to cells, FACS); type: cell-based; conditions: increasing concentrations of heparin or modified heparin, FIG. 4
Protocol: Methods for measuring binding of CTGF to cells are generally known to those skilled in the art. (See, e.g., Nishida (1998) Biochem Biophys Res Commun 247:905-909; Segarini et al. (2001) J Biol Chem 276:40659-40667.) In one method used herein, cells were suspended in media containing CTGF under conditions suitable for binding of CTGF to cellular targets, e.g., incubation at 4° C. Cells may optionally be treated prior to or concurrently with CTGF exposure; for example, cells may be treated with enzymes that alter cell surface moieties, molecules that compete competitively or non-competitively with CTGF for binding to cells, etc. Following incubation, cells were washed and then incubated with fluorescently-labeled anti-CTGF antibody. The level of CTGF binding was then measured using a FACS apparatus.
To determine the specificity of sulfation and charge distribution for CTGF-mediated cell adhesion and cell binding, experiments as described in Examples 3.1, 3.2, and 3.3, were performed with the following modification. Combination of HFF cells with CTGF was accompanied by addition of increasing concentrations of heparin that was modified to contain differing amounts of sulfation and/or acetylation.

## bFGF: basic fibroblast growth factor
CTGF and betaglycan
  binding between CTGF and betaglycan in the presence of the factor: adversely influenced
CTGF [1]
  interaction with CTGF (co-immunoprecipitation with anti-CTGF antibodies): clear interaction

## chondroitin sulfate [naturally sulfated chondroitin]
[2]
  CTGF-mediated (CTGF-dependent) cell adhesion, effect of added polysaccharide: no modulation
CTGF [3]
  binding of CTGF to cells (displacement assay): no modulation

## dermatan sulfate [naturally sulfated dermatan]
[2]
  CTGF-mediated (CTGF-dependent) cell adhesion, effect of added polysaccharide: no modulation
CTGF [3]
  binding of CTGF to cells (displacement assay): no modulation

## heparin
CTGF [4]
  binding of CTGF to HFF, inhibition: substantially inhibit
[2]
  CTGF-mediated (CTGF-dependent) cell adhesion, effect of added polysaccharide: inhibited

B1: sBetaglycan: soluble betaglycan (TGF-β type III receptor), a heparan sulfate proteoglycan (protein, UniProt Q03167 21-787, looked up)
extracellular domain: GPEPGALCELSPVSASHPVQALMESFTVLSGCASRGTTGLPQEVHVLNLRTAGQGPGQLQREVTLHLNPISSVHIHHKSVVFLLNSPHPLVWHLKTERLATGVSRLFLVSEGSVVQFSSANFSLTAETEERNFPHGNEHLLNWARKEYGAVTSFTELKIARNIYIKVGEDQVFPPKCNIGKNFLSLNYLAEYLQPKAAEGCVMSSQPQNEEVHIIELITPNSNPYSAFQVDITIDIRPSQEDLEVVKNLILILKCKKSVNWVIKSFDVKGSLKIIAPNSIGFGKESERSMTMTKSIRDDIPSTQGNLVKWALDNGYSPITSYTMAPVANRFHLRLENNAEEMGDEEVHTIPPELRILLDPGALPALQNPPIRGGEGQNGGLPFPFPDISRRVWNEEGEDGLPRPKDPVIPSIQLFPGLREPEEVQGSVDIALSVKCDNEKMIVAVEKDSFQASGYSGMDVTLLDPTCKAKMNGTHFVLESPLNGCGTRPRWSALDGVVYYNSIVIQVPALGDSSGWPDGYEDLESGDNGFPGDMDEGDASLFTRPEIVVFNCSLQQVRNPSSFQEQPHGNITFNMELYNTDLFLVPSQGVFSVPENGHVYVEVSVTKAEQELGFAIQTCFISPYSNPDRMSHYTIIENICPKDESVKFYSPKRVHFPIPQADMDKKRFSFVFKPVFNTSLLFLQCELTLCTKMEKHPQKLPKCVPPDEACTSLDASIIWAMMQNKKTFTKPLAVIHHEAESKEKGPSMKEPNPISPPIFHGLDTLTV
modifications: extracellular domain
notes: soluble betaglycan (TGF-β type III receptor), a heparan sulfate proteoglycan
CTGF [1]
  interaction with CTGF (co-immunoprecipitation with anti-CTGF antibodies): dose-sensitive interaction
